Experimental data from ChEMBL document CHEMBL4715814, “Design, synthesis and biological activity evaluation of novel 4-subtituted 2-naphthamide derivatives as AcrB inhibitors” (2018).
Active and inactive are the calls of the source. No cut-off for these calls is given here.

Tests used:
[1] = test system: Escherichia coli; test: Potentiation of rifampicin-induced antibacterial activity against wild type Escherichia coli BW25113 assessed as rifampicin MIC at 256 ug/ml incubated for 18 hrs under aerobic condition by checkerboard titration assay (reference value: 16 ug/ml); type: functional; conditions: dose 256 µg/ml
[2] = test system: Escherichia coli; test: Potentiation of erythromycin-induced antibacterial activity against AcrB deficient Escherichia coli BW25113 assessed as erythromycin MIC at 512 ug/ml incubated for 18 hrs under aerobic condition by checkerboard titration assay (reference value: 32 ug/ml); type: functional; conditions: dose 512 µg/ml
[3] = test system: Escherichia coli; test: Potentiation of chloramphenicol-induced antibacterial activity against wild type Escherichia coli BW25113 assessed as chloramphenicol MIC at 512 ug/ml incubated for 18 hrs under aerobic condition by checkerboard titration assay (reference value: 16 ug/ml); type: functional; conditions: dose 512 µg/ml
[4] = test system: Escherichia coli; test: Potentiation of TPP-induced antibacterial activity against wild type Escherichia coli BW25113 assessed as TPP MIC at 256 ug/ml incubated for 18 hrs under aerobic condition by checkerboard titration assay (reference value: 1024 ug/ml); type: functional; conditions: dose 256 µg/ml
[5] = test system: Escherichia coli; test: Potentiation of TPP-induced antibacterial activity against wild type Escherichia coli BW25113 assessed as TPP MIC at 512 ug/ml incubated for 18 hrs under aerobic condition by checkerboard titration assay (reference value: 1024 ug/ml); type: functional; conditions: dose 512 µg/ml
[6] = test system: Escherichia coli; test: Potentiation of erythromycin-induced antibacterial activity against wild type Escherichia coli BW25113 assessed as erythromycin MIC at 256 ug/ml incubated for 18 hrs under aerobic condition by checkerboard titration assay (reference value: 128 ug/ml); type: functional; conditions: dose 256 µg/ml
[7] = test system: Escherichia coli; test: Potentiation of erythromycin-induced antibacterial activity against wild type Escherichia coli BW25113 assessed as erythromycin MIC at 512 ug/ml incubated for 18 hrs under aerobic condition by checkerboard titration assay (reference value: 128 ug/ml); type: functional; conditions: dose 512 µg/ml
[8] = test system: Escherichia coli; test: Potentiation of chloramphenicol-induced antibacterial activity against wild type Escherichia coli BW25113 assessed as chloramphenicol MIC at 256 ug/ml incubated for 18 hrs under aerobic condition by checkerboard titration assay (reference value: 16 ug/ml); type: functional; conditions: dose 256 µg/ml
[9] = test system: Escherichia coli; test: Potentiation of TPP-induced antibacterial activity against AcrB deficient Escherichia coli BW25113 assessed as TPP MIC at 512 ug/ml incubated for 18 hrs under aerobic condition by checkerboard titration assay (reference value: 256 ug/ml); type: functional; conditions: dose 512 µg/ml
[10] = test system: Escherichia coli; test: Potentiation of TPP-induced antibacterial activity against AcrB deficient Escherichia coli BW25113 assessed as TPP MIC at 128 ug/ml incubated for 18 hrs under aerobic condition by checkerboard titration assay (reference value: 256 ug/ml); type: functional; conditions: dose 128 µg/ml
[11] = test system: Escherichia coli; test: Potentiation of TPP-induced antibacterial activity against AcrB deficient Escherichia coli BW25113 assessed as TPP MIC at 256 ug/ml incubated for 18 hrs under aerobic condition by checkerboard titration assay (reference value: 256 ug/ml); type: functional; conditions: dose 256 µg/ml
[12] = test system: Escherichia coli; test: Potentiation of chloramphenicol-induced antibacterial activity against wild type Escherichia coli BW25113 assessed as chloramphenicol MIC at 128 ug/ml incubated for 18 hrs under aerobic condition by checkerboard titration assay (reference value: 16 ug/ml); type: functional; conditions: dose 128 µg/ml
[13] = test system: Escherichia coli; test: Potentiation of chloramphenicol-induced antibacterial activity against AcrB deficient Escherichia coli BW25113 assessed as chloramphenicol MIC at 128 ug/ml incubated for 18 hrs under aerobic condition by checkerboard titration assay (reference value: 2 ug/ml); type: functional; conditions: dose 128 µg/ml
[14] = test system: Escherichia coli; test: Potentiation of chloramphenicol-induced antibacterial activity against wild type Escherichia coli BW25113 assessed as fold reduction in chloramphenicol MIC at 128 ug/ml incubated for 18 hrs under aerobic condition by checkerboard titration assay relative to chloramphenicol MIC alone; type: functional; conditions: dose 128 µg/ml
[15] = test system: Escherichia coli; test: Potentiation of erythromycin-induced antibacterial activity against wild type Escherichia coli BW25113 assessed as fold reduction in erythromycin MIC at 128 ug/ml incubated for 18 hrs under aerobic condition by checkerboard titration assay relative to erythromycin MIC alone; type: functional; conditions: dose 128 µg/ml
[16] = test system: Escherichia coli; test: Potentiation of erythromycin-induced antibacterial activity against AcrB deficient Escherichia coli BW25113 assessed as erythromycin MIC at 128 ug/ml incubated for 18 hrs under aerobic condition by checkerboard titration assay (reference value: 32 ug/ml); type: functional; conditions: dose 128 µg/ml
[17] = test system: Escherichia coli; test: Potentiation of erythromycin-induced antibacterial activity against AcrB deficient Escherichia coli BW25113 assessed as erythromycin MIC at 256 ug/ml incubated for 18 hrs under aerobic condition by checkerboard titration assay (reference value: 32 ug/ml); type: functional; conditions: dose 256 µg/ml
[18] = test system: Escherichia coli; test: Potentiation of erythromycin-induced antibacterial activity against wild type Escherichia coli BW25113 assessed as erythromycin MIC at 128 ug/ml incubated for 18 hrs under aerobic condition by checkerboard titration assay (reference value: 128 ug/ml); type: functional; conditions: dose 128 µg/ml
[19] = test system: Cell membrane; test: Induction of outer membrane permeabilization in wild type Escherichia coli BW25113 assessed as increase in nitrocefin hydrolysis at 512 ug/ml measured for 30 mins in presence of CCCP by spectrophotometry analysis; type: subcellular; conditions: dose 512.0 µg/ml
[20] = test system: Escherichia coli; test: Potentiation of chloramphenicol-induced antibacterial activity against AcrB deficient Escherichia coli BW25113 assessed as chloramphenicol MIC at 256 ug/ml incubated for 18 hrs under aerobic condition by checkerboard titration assay (reference value: 2 ug/ml); type: functional; conditions: dose 256 µg/ml
[21] = test system: Escherichia coli; test: Potentiation of rifampicin-induced antibacterial activity against wild type Escherichia coli BW25113 assessed as rifampicin MIC at 128 ug/ml incubated for 18 hrs under aerobic condition by checkerboard titration assay (reference value: 16 ug/ml); type: functional; conditions: dose 128 µg/ml
[22] = test system: Escherichia coli; test: Potentiation of TPP-induced antibacterial activity against wild type Escherichia coli BW25113 assessed as TPP MIC at 128 ug/ml incubated for 18 hrs under aerobic condition by checkerboard titration assay (reference value: 1024 ug/ml); type: functional; conditions: dose 128 µg/ml
[23] = test system: Escherichia coli; test: (§1) Antibacterial activity against Wild type Escherichia coli BW25113 assessed as inhibition of AcrB efflux pump by mesuring the glucose-induced nile red efflux at 500 uM preincubated with CCCP for 15 mins followed by compound addition after 15 mins nile red added and incubated for 3 hrs in shaker by fluorimetric analysis; type: functional, organism-based; conditions: time 195.0 min
[24] = test system: Cell membrane; test: Disruption of inner membrane potential in wild type Escherichia coli BW25113 at 512 ug/ml preincubated for 10 mins followed by glucose stimulation and CCCP addition by DiOC2 probe based fluorimetric analysis; type: subcellular; conditions: dose 512.0 µg/ml
[25] = test system: Escherichia coli; test: Potentiation of chloramphenicol-induced antibacterial activity against wild type Escherichia coli BW25113 assessed as fold reduction in chloramphenicol MIC at 256 ug/ml incubated for 18 hrs under aerobic condition by checkerboard titration assay relative to chloramphenicol MIC alone; type: functional; conditions: dose 256 µg/ml
[26] = test system: Escherichia coli; test: as §1, with “200” for “500”; type: functional, organism-based; conditions: time 195.0 min
[27] = test system: Escherichia coli; test: as §1, with “100” for “500”; type: functional, organism-based; conditions: time 195.0 min

Structure (SMILES)	MIC [1] [mg/L]	MIC [4] [mg/L]	MIC [6] [mg/L]	MIC [8] [mg/L]	MIC [11] [mg/L]	MIC [12] [mg/L]	MIC [17] [mg/L]	MIC [18] [mg/L]	Activity [19]	MIC [20] [mg/L]	MIC [21] [mg/L]	MIC [22] [mg/L]	Activity [23]	Activity [24]	fold change (FC) [25]	also measured
O=C(NCc1ccccc1)c1cc(OCc2ccccc2)c2ccccc2c1	16	1020	128	16	–	–	–	–	–	–	–	–	–	–	–	MIC [2]: 32 mg/L; MIC [3]: 16 mg/L; MIC [5]: 1020 mg/L; MIC [7]: 64 mg/L; MIC [9]: 256 mg/L
CCCNC(=O)c1cc(OCCC(C)C)c2ccccc2c1	4	1020	16	4	256	16	16	32	inactive	1	16	1020	–	–	–	MIC [10]: 256 mg/L; MIC [13]: 2 mg/L; fold change (FC) [14]: 4; fold change (FC) [15]: 4; MIC [16]: 32 mg/L
CC(C)CCOc1cc(C(=O)Nc2ccccc2C(F)(F)F)cc2ccccc12	16	1020	32	4	256	8	32	64	inactive	2	16	1020	Active	inactive	–	–
CC(C)CCOc1cc(C(=O)NCc2ccccc2Cl)cc2ccccc12	16	1020	128	2	256	4	32	128	inactive	2	16	1020	Active	Active	8	fold change (FC) [14]: 4; fold change (FC) [15]: 4
NC(=O)c1cc(OCCSc2nc3ccccc3[nH]2)c2ccccc2c1	16	256	128	16	256	16	32	128	inactive	2	16	1020	Active	inactive	–	–
COc1ccc(CNC(=O)c2cc(OCc3ccccc3)c3ccccc3c2)cc1	4	1020	128	4	–	8	32	128	Active	2	16	1020	–	–	–	Activity [26]: Active
C#CCNC(=O)c1cc(OCCC(C)C)c2ccccc2c1	16	256	128	2	256	8	32	128	–	2	16	1020	inactive	Active	8	MIC [10]: 256 mg/L; MIC [13]: 2 mg/L; MIC [16]: 32 mg/L
NC(=O)c1cc(OCCOc2ccccc2N)c2ccccc2c1	16	1020	128	4	256	8	32	128	Active	2	16	1020	Active	Active	–	–
COc1ccc(CNC(=O)c2cc(OCCC(C)C)c3ccccc3c2)cc1	16	1020	32	16	256	16	32	64	–	2	16	1020	inactive	–	–	–
NC(=O)c1cc(OCCN2CCN(c3ccccc3)CC2)c2ccccc2c1	16	512	128	2	256	8	32	128	inactive	2	16	1020	–	inactive	8	Activity [26]: Active
O=C(NCc1ccco1)c1cc(OCc2ccccc2)c2ccccc2c1	4	256	128	2	–	16	–	128	inactive	2	16	1020	–	Active	8	Activity [27]: Active
CC(C)CCOc1cc(C(=O)NCc2ccccc2)cc2ccccc12	8	1020	32	4	256	8	32	64	inactive	1	16	1020	–	–	–	–
CC(C)CCOc1cc(C(=O)NCc2ccco2)cc2ccccc12	16	1020	32	4	256	8	32	64	inactive	2	16	1020	Active	Active	–	–
CCCNC(=O)c1cc(OCc2ccccc2)c2ccccc2c1	8	1020	128	4	–	16	–	128	inactive	2	16	1020	–	Active	–	–
CC(C)CCOc1cc(C(=O)NC2CCCCC2)cc2ccccc12	–	–	–	–	–	2	–	16	inactive	–	16	1020	–	inactive	8	MIC [10]: 256 mg/L; MIC [13]: 2 mg/L; fold change (FC) [14]: 8; fold change (FC) [15]: 8; MIC [16]: 32 mg/L; Activity [26]: Active
